Assays:
Assay type in all cases: in vivo, male Wistar rats
[1] = test system: moderate traumatic brain injury (TBI) induced by controlled cortical impact (CCI); assay: Morris water maze (MWM) test after TBI
Method: (§1) FIG. 2: The figure illustrates functional tests that are carried out on healthy (sham surgery) no treatment, vehicle treated and ALPHA-1062 treated rats to assess sensorimotor and cognitive function after TBI. Sensimotor function tests. a) The figure depicts tests to assess the modified neurological severity score (mNSS). […] The animal is required to balance over a grid and the frequency of steps missing the grid are counted. This test assesses the functionality of the injured parietal cortex of the rat's brain. c) The adhesive removal test consists of applying adhesive tape on each forepaw of the animal and measuring the time-to-contact and the time-to-remove them. This behavior requires correct paw and mouth sensitivity (time-to-contact) and correct dexterity (time-to-remove). Cognitive function tests: a) This picture illustrates the Morris water maze that comprises that a rat is placed in a large circular pool (picture on the left) and is required to find an invisible platform that allows it to escape the water by using various visuo-spatial cues. This test is used to study spatial learning and memory and assesses hippocampal and select cortical brain region function. Usually, the path of the rat through the pool is tracked (picture on the right) and the time spend in the proximity of the platform as well as the time needed until the platform is found by the rat are measured. b) For the new/novel object recognition (NOR) test, after a habituation time in the test space (picture on far left) rats are given the opportunity to explore two identical objects (A) for a predetermined period of time (picture in the middle). After a delay, the animals are then presented with two objects to explore, one of which is the same as in the first exploration trial (A), the other a new object (B) (picture on the right). Depending on the length of the delay between the two trials or depending on the extend of cortical damage, the rats will either explore the novel object for a greater time period, indicating memory for the familiar object, or will explore the novel and familiar objects for the same amount of time, indicating a lack of recall or loss of memory for the familiar object presented during the initial trial.
(§2) Young adult (2-3 months) male Wistar rats were subjected to a moderate traumatic brain injury (TBI) induced by controlled cortical impact (CCI). Animal models of TBI including the CCI model and functional tests have been described in detail in peer reviewed publications (Xiong et al., 2013, Nat Rev Neurosci.; Zhang et al., 2016, J Neurosurg.; Zhang et al., 2016, Neurochem Int.; Zhang et al., 2021, J Neurotrauma). Injury consisted of a single impact at 4.0 m/sec, 2.5 mm deformation to the left parietal cortex. In addition, a group of animals was left healthy/not injured to serve as a healthy control.
The animals were divided into 3 groups: • 1) TBI+Vehicle (purified water, n=10) • 2) TBI+ALPHA-1062 (4.5 mg/kg) (n=10) • 3) Healthy/not injured and not treated (Sham surgery) (n=10)
(§3) The substance used in this study was ALPHA-1062 at 4.5 mg/kg. As control treatment (vehicle) purified water was administered intranasally (IN). The ALPHA-1062 and the control treatment were initiated 2 hours after injury and continued twice daily (with a 6-hour interval) for 35 consecutive days.
During the in vivo part of the study cognitive functional tests were performed by conducting Morris water maze (MWM) tests and novel object recognition tests on all animals at 5 weeks after TBI, with the MWM test being performed on days 31-35 following TBI (see Table 1).
The Morris water maze (MWM) is a test used in behavioral neuroscience to study spatial learning and memory, for example in rats. It enables spatial learning and memory to be studied, and can also be used to assess damage to hippocampus and select cortical regions of the brain. […]

[2] = test system: moderate traumatic brain injury (TBI) induced by controlled cortical impact (CCI); assay: Novel object recognition (NOR) test after TBI
Method: as §1, with “Depending on the length of the delay between the two trials or depending on the extend of cortical damage, the rats will either explore the novel object for a greater time period, indicating memory for the familiar object, or will explore the novel and familiar objects for the same amount of time, indicating a lack of recall or loss of memory for the familiar object presented during the initial trial.” left out

[3] = test system: moderate traumatic brain injury (TBI) induced by controlled cortical impact (CCI); assay: Lesion volume and hippocampal structure (H&E) 35 days post-TBI; conditions: 4.5 mg/kg IN twice daily, 35 days after TBI
Excerpt: as §2, §3
Histological assessment was performed including quantitative image analysis protocols; followed by statistical analysis of the data. Histology: All rats were sacrificed after the last Morris water maze (MWM) test 35 days after TBI for the following histological analyses: lesion volume (H&E), neuronal cell loss in injured cortex and hippocampus (NeuN), doublecortin (DCX, neuroblasts), NeuN/BrdU (newborn neurons), pathological p-Tau (AT8) and total Tau IHC. […]

[4] = 4.5 mg/kg IN twice daily, days 33 to 35

In the case of `COc1ccc2c3c1O[C@H]1C[C@@H](OC(=O)c4ccccc4)C=C[C@@]31CCN(C)C2` [ALPHA-1062, (4aS,6R,8aS)-5,6,9,10,11,12-hexahydro-3-methoxy-11-methyl-4aH-[1]benzofuro[3a,3,2-ef][2]benzazepin-6-ol benzoate], the “MWM % time in the correct quadrant, compared to uninjured (sham surgery) animals” value [1, 4] is reported as “equivalent amount of time”, the “MWM % time in the correct quadrant, compared to vehicle” value [1, 4] is reported as “statistically significantly better” and the “MWM latency to find the hidden escape platform, compared to uninjured (sham) animals” value [1, 4] is reported as “as well as the uninjured (sham) animals”. The “MWM latency to find the hidden escape platform, compared to vehicle” value [1, 4] was “statistically significantly better”, the “Morris Water Maze (MWM), performance over SHAM” value ([1]; rats after TBI, ALPHA-1062 treatment compared to healthy sham animals) was “equivalent to” and the “Morris Water Maze (MWM), performance over VEHICLE” value ([1]; rats after TBI, ALPHA-1062 treatment compared to vehicle treatment) was “superior”. For the same molecule, the “NOR, percentage of time spent exploring novel object (B) vs familiar object” value ([2]; 4.5 mg/kg IN twice daily, 5 weeks after TBI) was “statistically significant preference for the novel object”, the “Novel Object Recognition, performance over SHAM” value ([2]; rats after TBI, compared to healthy sham animals) was “equivalent to” and the “Novel Object Recognition, performance over VEHICLE” value ([2]; rats after TBI, compared to vehicle treatment) was “superior”. The “hippocampal structure on the injured side of the brain” value [3] was “preservation of hippocampal structure” and the lesion volume ([3]; vs vehicle) was “significant (p<0.05) reduction of lesion volume”.
